This passage reports Ki results from patent publication US9738655B2, “Tetrahydroisoquinolines containing substituted azoles as factor XIa inhibitors” (BRISTOL-MYERS SQUIBB COMPANY, priority 2013, dated 2017).

The target in test [1] is purified human plasma kallikrein (Homo sapiens (Human), UniProt P03952). Briefly: Plasma kallikrein enzyme inhibition assay (chromogenic substrate S-2302). In kind it is biochemical.
Test [2] deals with purified human Factor XIa (Homo sapiens (Human), UniProt P03951). The experiment in a line: Factor XIa enzyme inhibition assay (chromogenic substrate S-2366). Conditions: read-out: Factor XIa Ki; measured at 25° C.
Sequence of purified human Factor XIa (P03951 388-625): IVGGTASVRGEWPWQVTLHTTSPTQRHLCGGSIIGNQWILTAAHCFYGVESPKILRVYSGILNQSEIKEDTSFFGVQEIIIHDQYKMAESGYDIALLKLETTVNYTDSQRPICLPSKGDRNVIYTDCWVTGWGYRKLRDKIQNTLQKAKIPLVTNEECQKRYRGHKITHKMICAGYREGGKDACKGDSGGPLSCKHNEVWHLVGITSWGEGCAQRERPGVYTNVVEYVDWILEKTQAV
Sequence of purified human Factor XIa (P03951 19-387 partner): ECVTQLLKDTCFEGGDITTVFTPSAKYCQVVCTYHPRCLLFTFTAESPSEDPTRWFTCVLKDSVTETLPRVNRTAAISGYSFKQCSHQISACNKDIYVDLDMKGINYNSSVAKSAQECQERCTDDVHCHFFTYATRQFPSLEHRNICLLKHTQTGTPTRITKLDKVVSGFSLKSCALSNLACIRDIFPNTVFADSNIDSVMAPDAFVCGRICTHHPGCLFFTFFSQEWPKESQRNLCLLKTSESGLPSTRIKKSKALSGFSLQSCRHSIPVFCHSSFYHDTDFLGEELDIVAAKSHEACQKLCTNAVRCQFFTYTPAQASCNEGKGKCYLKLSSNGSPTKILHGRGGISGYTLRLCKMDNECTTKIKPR
Where [3] appears, read: measured at 25° C. (no asterisk).

Molecules are shown by their SMILES. Counter-ions that a name gives are not always drawn.

Sequence of purified human plasma kallikrein (P03952 391-638): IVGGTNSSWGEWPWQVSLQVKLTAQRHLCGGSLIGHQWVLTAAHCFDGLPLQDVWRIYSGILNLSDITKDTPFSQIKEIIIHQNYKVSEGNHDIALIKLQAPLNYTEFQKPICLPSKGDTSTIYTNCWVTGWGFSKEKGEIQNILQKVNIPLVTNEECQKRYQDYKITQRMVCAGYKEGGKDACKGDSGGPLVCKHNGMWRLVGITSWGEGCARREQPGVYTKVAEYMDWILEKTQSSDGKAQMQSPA
Sequence of purified human plasma kallikrein (P03952 20-390 partner): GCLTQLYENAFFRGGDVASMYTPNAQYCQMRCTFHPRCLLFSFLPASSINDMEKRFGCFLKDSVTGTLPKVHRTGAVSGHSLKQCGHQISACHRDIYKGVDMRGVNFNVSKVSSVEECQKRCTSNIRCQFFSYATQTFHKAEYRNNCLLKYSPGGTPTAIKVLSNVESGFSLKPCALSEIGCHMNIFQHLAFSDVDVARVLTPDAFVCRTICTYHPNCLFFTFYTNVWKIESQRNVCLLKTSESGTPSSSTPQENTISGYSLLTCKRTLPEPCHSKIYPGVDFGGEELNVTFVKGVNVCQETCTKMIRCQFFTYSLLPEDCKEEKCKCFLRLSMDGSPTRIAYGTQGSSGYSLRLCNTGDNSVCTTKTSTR

Broadly, the Ki is the dissociation constant of the complex between target and ligand, obtained from inhibition or displacement. With `CN(C)C(=O)C1CCN(c2cccc3c2CCN(C(=O)c2cn(-c4cccc(Cl)c4F)nn2)C3C(=O)Nc2ccc(C(=O)O)cc2)CC1` (centres unmarked) [Example 56, 4-(2-(1-(3-chloro-2-fluorophenyl)-1H-1,2,3-triazole-4-carbonyl)-5-(4-(dimethylcarbamoyl)piperidin-1-yl)-1,2,3,4-tetrahydroisoquinoline-1-carboxamido)benzoic acid, TFA salt], the figures for the inhibitory constant (Ki) in test [1] (setting [3]) and in test [2] were 5.6 nM and under 5 nM, respectively.
The matching figures for `CN1CCN(c2cccc3c2CCN(C(=O)c2cnn(-c4cccc(Cl)c4)c2)C3C(=O)Nc2ccc(C(=O)O)cc2)CC1` (centres unmarked) [Example 200, 4-(2-(1-(3-chlorophenyl)-1H-pyrazole-4-carbonyl)-5-(4-methylpiperazin-1-yl)-1,2,3,4-tetrahydroisoquinoline-1-carboxamido)benzoic acid, 2 TFA salt]: 10.7 nM and 41.7 nM.
As to `COC1CCN(c2cccc3c2CCN(C(=O)c2cn(-c4cccc(Cl)c4F)nn2)C3C(=O)Nc2ccc(-c3ncc[nH]3)cc2)CC1` (centres unmarked) [Example 141, N-(4-(1H-Imidazol-2-yl)phenyl)-2-(1-(3-chloro-2-fluorophenyl)-1H-1,2,3-triazole-4-carbonyl)-5-(4-methoxypiperidin-1-yl)-1,2,3,4-tetrahydroisoquinoline-1-carboxamide, 2 TFA], the values for the Ki in test [1] (measured at 37° C. (*)) and in test [2] were 161 nM and 5.95 nM, respectively.
In the case of `CN1CCN(c2cccc3c2CCN(C(=O)c2cn(-c4cccc(Cl)c4F)nn2)[C@@H]3C(=O)Nc2ccc(C(=O)O)cc2)C(=O)C1` [Example 80, (S)-4-(2-(1-(3-chloro-2-fluorophenyl)-1H-1,2,3-triazole-4-carbonyl)-5-(4-methyl-2-oxopiprazin-1-yl)-1,2,3,4-tetrahydroisoquinoline-1-carboxamido)benzoic acid, HCl], the Ki is 6.37 nM in test [1] (setting [3]) and under 5 nM in test [2].
For `O=C(O)c1ccc(NC(=O)C2c3cccc(N4CCC(N5CCCC5=O)CC4)c3CCN2C(=O)[C@H]2CC(c3cccc(Cl)c3F)=NO2)cc1` (single isomer, unassigned) [Example 208, TFA salt], in that order: 447 nM and under 5 nM.
The matching figures for `O=C(O)c1ccc(NC(=O)C2c3cccc(-c4cnoc4)c3CCN2C(=O)c2cn(-c3cccc(Cl)c3F)nn2)cc1` (centres unmarked) [Example 159, 4-(2-(1-(3-chloro-2-fluorophenyl)-1H-1,2,3-triazole-4-carbonyl)-5-(isoxazol-4-yl)-1,2,3,4-tetrahydroisoquinoline-1-carboxamido)benzoic acid]: 21.9 nM and 13.2 nM.
`COC1CCN(c2cccc3c2CCN(C(=O)c2cn(-c4cccc(Cl)c4F)nn2)[C@H]3C(=O)Nc2ccc(CO)cc2)CC1` [Example 121, (R)-2-(1-(3-Chloro-2-fluorophenyl)-1H-1,2,3-triazole-4-carbonyl)-N-(4-(hydroxymethyl)phenyl)-5-(4-methoxypiperidin-1-yl)-1,2,3,4-tetrahydroisoquinoline-1-carboxamide]: the Ki in test [1] (measured at 37° C. (*)) was found to be 7900 nM; in test [2], 1050 nM.
For `O=C(O)c1ccc(NC(=O)C2c3cccc(N4CCC(N5CCCC5=O)CC4)c3CCN2C(=O)c2cn(-c3cccc(Cl)c3F)cn2)cc1` (centres unmarked) [Example 92, 4-(2-(1-(3-Chloro-2-fluorophenyl)-1H-imidazole-4-carbonyl)-5-(4-(2-oxopyrrolidin-1-yl)piperidin-1-yl)-1,2,3,4-tetrahydroisoquinoline-1-carboxamido)benzoic acid, TFA salt], the values for the Ki in test [1] (setting [3]) and in test [2] were 5.6 nM and under 5 nM, respectively.
For `O=C(O)c1ccc(NC(=O)C2c3cccc(N4CCC(N5CCCC5=O)CC4)c3CCN2C(=O)c2cnn(-c3cccc(Cl)c3F)c2)cc1` (centres unmarked) [Example 74, 4-(2-(1-(3-chloro-2-fluorophenyl)-1H-pyrazole-4-carbonyl)-5-(4-(2-oxopyrrolidin-1-yl)piperidin-1-yl)-1,2,3,4-tetrahydroisoquinoline-1-carboxamido)benzoic acid, TFA salt], in that order: 27.6 nM and under 5 nM.
As for `COC1CCN(c2cccc3c2CCN(C(=O)c2cn(-c4cccc(Cl)c4F)nn2)C3C(=O)Nc2ccc(C(N)=O)cc2)CC1` (centres unmarked) [Example 335, N-(4-Carbamoylphenyl)-2-(1-(3-chloro-2-fluorophenyl)-1H-1,2,3-triazole-4-carbonyl)-5-(4-methoxypiperidin-1-yl)-1,2,3,4-tetrahydroisoquinoline-1-carboxamide, TFA salt], the figures for the Ki in test [1] (measured at 37° C. (*)) and in test [2] were 96.9 nM and under 5 nM, respectively.
`CN(C)CCNC(=O)c1ccc(-c2cccc3c2CCN(C(=O)c2cn(-c4cccc(Cl)c4F)nn2)C3C(=O)Nc2ccc(C(=O)O)cc2)cc1` (centres unmarked) [Example 6, 4-(2-(1-(3-Chloro-2-fluorophenyl)-1H-1,2,3-triazole-4-carbonyl)-5-(4-((2-(dimethylamino)ethyl)carbamoyl)phenyl)-1,2,3,4-tetrahydroisoquinoline-1-carboxamido)benzoic acid]: the Ki was 2.4 nM in test [1] (setting [3]) and under 5 nM in test [2].
The matching figures for `O=C1CCC2(CCN(c3cccc4c3CCN(C(=O)c3cn(-c5cccc(Cl)c5F)nn3)C4C(=O)Nc3ccc(C(=O)O)cc3)CC2)O1` (centres unmarked) [Example 76, 4-(2-(1-(3-chloro-2-fluorophenyl)-1H-1,2,3-triazole-4-carbonyl)-5-(2-oxo-1-oxa-8-azaspiro[4.5]decan-8-yl)-1,2,3,4-tetrahydroisoquinoline-1-carboximido)benzoic acid, TFA]: 15.3 nM and under 5 nM.
With `COC(C)(C)C1CCN(c2cccc3c2CCN(C(=O)c2cnn(-c4cccc(Cl)c4F)c2)C3C(=O)Nc2ccc(C(=O)O)cc2)CC1` (centres unmarked) [Example 224, 4-(2-(1-(3-Chloro-2-fluorophenyl)-1H-pyrazole-4-carbonyl)-5-(4-(2-methoxypropan-2-yl)piperidin-1-yl)-1,2,3,4-tetrahydroisoquinoline-1-carboxamido)benzoic acid, TFA salt], the Ki in test [1] (setting [3]) was 92 nM; in test [2], under 5 nM.
For `CN1CCN(c2cccc3c2CCN(C(=O)c2cncc(-c4cccc(Cl)c4)c2)C3C(=O)Nc2ccc(C(=O)O)cc2)CC1` (centres unmarked) [Example 320, 4-(2-(5-(3-Chlorophenyl)nicotinoyl)-5-(4-methylpiperazin-1-yl)-1,2,3,4-tetrahydroisoquinoline-1-carboxamido)benzoic acid, 2 TFA salt], in that order: 124 nM and 158 nM.
For `CN(C)C(=O)C1CCN(c2cccc3c2CCN(C(=O)c2cn(-c4cccc(Cl)c4F)cn2)[C@H]3C(=O)Nc2ccc(C(=O)O)cc2)CC1` (single isomer, unassigned) [Example 62, TFA salt], in that order: 399 nM and 74.6 nM.
For `COC1CCN(c2cccc3c2CCN(C(=O)c2cn(-c4cccc(Cl)c4F)cn2)[C@@H]3C(=O)Nc2ccc(C(=O)O)cc2)CC1` [Example 273, (S)-4-(2-(1-(3-chloro-2-fluorophenyl)-1H-imidazole-4-carbonyl)-5-(4-methoxypiperidin-1-yl)-1,2,3,4-tetrahydroisoquinoline-1-carboxamide)benzoic acid, TFA salt], in that order: 7.65 nM and under 5 nM.
